Reference: US20040043055A1 (AJINOMOTO CO. INC., priority 2002, published 2004)

Key:
[1] = Example 1: body weight of mice on high fat diet containing L-glutamine, with or without treadmill exercise; format: in vivo, C57BL/6J mice
Description: (§1) Fifty male C57BL/6J mice, 9 weeks old, were used herein. […] The experiment was conducted for 16 weeks. The mice exercised on a treadmill at moderate intensity (at 4.0 m/min) for 30 minutes a day, 5 days a week. It is known that oxygen consumption (VO2) strongly correlates with exercise intensity. However, VO2 reaches the plateau at a certain point as exercise intensity increases, which is defined as maximum oxygen consumption (VO2max). Percentage of maximum oxygen consumption (% VO2max) is one of the common ways to indicate the exercise intensity. According to Schefer V. and Talan M. I. (Exp. Gerontol. 31:387 (1996)), a running speed of 3-4 m/min which was the same intensity of exercise used herein produced a VO2 equivalent to 54-58% of the VO2max in adult C57BL/6J mice. In 16 weeks of the experiment, plasma and liver samples were obtained after overnight starvation.
Relative body weight to the LF group in week 5, 10, and 16 are shown in FIGS. 1, 2, and 3, respectively.
Applying to a human, assuming a life span of 70 years, 10 weeks and 4 months for mice correspond to 7 and 12 years for a human, respectively.

[2] = Example 1: fasting plasma insulin concentration in week 16; format: in vivo, C57BL/6J mice; details: FIG. 4
Description: as §1

[3] = Example 1: liver glycogen content after starvation in week 16; format: in vivo, C57BL/6J mice; details: 24 h starvation, L-glutamine plus exercise, FIG. 5
Description: The results of glycogen contents in the liver after starvation were the same trends as plasma insulin concentrations (FIG. 5).
as §1

[4] = Example 2: body weight, epididymal fat and abdominal fats after 6 weeks of high fat diet containing L-glutamine; format: in vivo, C57BL/6J mice; details: high fat diet containing 3.6% or 6.0% of L-glutamine
Description: Forty of male C57BL/6J mice, age 5 weeks, were used herein. […] After 6 weeks of the diet feedings, body weight and epididymal fat weight were measured.

[5] = Solubility limit of L-glutamine in liquid product; format: physicochemical

Which results are given for NC(=O)CC[C@H](N)C(=O)O [L-glutamine]?
body weight gain by high fat feeding ([1]; week 5, exercise groups, 6.0% L-glutamine plus exercise (6Q+EX) vs HF+EX, FIG. 1): prevented considerably; rate of body weight gain ([1]; week 5, non-exercise groups, high fat diet containing 6.0% of L-glutamine (6Q) vs HF, FIG. 1): did not reduce the rate of body weight gain; synergistic effect of L-glutamine and exercise on body weight gain ([1]; week 10, 6Q+EX, FIG. 2): synergistic effect lasted for 10 weeks; combined effects on body weight ([1]; week 16, 6Q+EX compared to HF+EX, FIG. 3): combined effects disappeared in week 16, although lower body weight was still observed; plasma insulin concentrations ([2]; L-glutamine administration alone, high fat feeding): reduced plasma insulin concentrations; plasma insulin concentrations ([2]; combination of L-glutamine administration and exercise): the lowest and was close to that of LF group; remaining glycogen content in the liver after starvation [3]: the lowest; weights of abdominal fats [4]: decreased in a dose-dependent manner; weights of epididymal fat ([4]; FIG. 7): decreased in a dose-dependent manner; rates of body weight gain ([4]; no exercise, FIG. 6): reduced by L-glutamine administrations in a dose-dependent manner; solubility limit ([5]; 0° C.): 8.3 g per 473 milliliters; solubility limit ([5]; 18° C.): 12.3 g per 473 milliliters; solubility limit ([5]; 30° C.): 22.7 g per 473 milliliters
